We go through nine compounds from patent publication US11091479B2, “Triazolopyridin-3-ones or their salts and pharmaceutical compositions comprising the same” (YUHAN CORPORATION, priority 2018, dated 2021).

Where a name gives a salt, the structure may show the parent alone. Some results are limits rather than exact numbers.

Common to all, as to type: biochemical
One test deals with T1, recombinant human VAP-1 (Homo sapiens, UniProt Q16853).
T1 construct: purchased R&D systems
T1 sequence (Q16853 1-763): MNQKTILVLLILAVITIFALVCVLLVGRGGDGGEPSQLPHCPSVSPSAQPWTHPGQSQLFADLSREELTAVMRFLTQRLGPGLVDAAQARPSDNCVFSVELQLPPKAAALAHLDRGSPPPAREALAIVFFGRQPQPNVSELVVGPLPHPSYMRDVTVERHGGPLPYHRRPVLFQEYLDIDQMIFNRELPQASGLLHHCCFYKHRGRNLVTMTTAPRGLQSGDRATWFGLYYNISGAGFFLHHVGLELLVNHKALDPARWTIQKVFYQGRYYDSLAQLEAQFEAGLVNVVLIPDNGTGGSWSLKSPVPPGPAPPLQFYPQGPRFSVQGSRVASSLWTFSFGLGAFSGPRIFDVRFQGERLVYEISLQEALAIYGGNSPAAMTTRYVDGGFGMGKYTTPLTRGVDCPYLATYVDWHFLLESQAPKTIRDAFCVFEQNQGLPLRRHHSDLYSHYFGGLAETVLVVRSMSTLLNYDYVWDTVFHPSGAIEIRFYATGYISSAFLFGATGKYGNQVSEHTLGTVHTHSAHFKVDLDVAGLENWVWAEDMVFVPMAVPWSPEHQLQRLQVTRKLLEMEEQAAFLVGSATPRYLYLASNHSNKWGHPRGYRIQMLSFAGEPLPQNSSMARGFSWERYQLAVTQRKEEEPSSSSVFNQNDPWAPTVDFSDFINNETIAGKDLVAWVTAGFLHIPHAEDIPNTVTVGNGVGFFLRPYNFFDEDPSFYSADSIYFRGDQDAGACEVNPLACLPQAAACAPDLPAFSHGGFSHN
Nature of the test: Activity on recombinant human VAP-1, HRP-coupled Amplex Red hydrogen peroxide assay, benzylamine substrate. The conditions noted are these: 30 min incubation at 37° C., 1 mM benzylamine, read-out: Inhibitory Activity (IC50, nM) human VAP-1. The protocol:
(§1) The compounds according to the present technology were evaluated in terms of activity on recombinant human VAP-1 (R&D systems) by measuring the level of hydrogen peroxide in horseradish peroxidase (HRP)-coupled reaction using Amplex Red Hydrogen Peroxide Assay Kit (Molecular Probes, Invitrogen, USA). The experiment was carried out at room temperature using benzylamine as a substrate. In the HRP-coupled reaction, hydrogen peroxide oxidation of 10-acetyl-3,7-dihydroxyphenoxazine (Amplex Red reagent) produces resorufin, which is a highly fluorescent compound. Briefly, the test compound was dissolved in dimethyl sulfoxide (DMSO) at a concentration of 20 mM. The dose-response assessment was made by 1:3 serial dilution in DMSO, thereby creating a 8 point curve. The concentration of the upper part was controlled according to the efficacy of the compounds, followed by dilution with a reaction buffer solution to obtain a final DMSO concentration of less than 1%. To each well of a 96 black well plate, human VAP-1 purified in 50 mM sodium phosphate buffer solution (pH7.4) was added. The test compounds dissolved in DMSO were incubated with the human VAP-1 enzymes at 37° C. for 30 minutes. After 30-minute incubation, each well was added with a reaction mixture containing 200 uM Amplex Red reagent prepared from 50 mM sodium phosphate buffer solution (pH 7.4), 1 mM benzylamine, and 1 U/mL HRP. Fluorescence intensity was measured at several time points during 1-2 hours using a microplate reader (Flexstation3, Molecular Devices) under the wavelength condition exciting at 544 nm and reading the emission at 590 nm. The inhibitory effect of the compounds was measured as a decrease (%) in the signal rate as compared to the control group without any inhibitor (only diluted DMSO). Data was fixed to a logistic model with four variables and IC50 value was calculated using GraphPad Prism program.

Test [1] addresses T2, recombinant human MAO-A (monoamine oxidase-A) (Homo sapiens, UniProt P21397).
T2 construct: purchased Sigma-Aldrich
T2 sequence (P21397 1-527): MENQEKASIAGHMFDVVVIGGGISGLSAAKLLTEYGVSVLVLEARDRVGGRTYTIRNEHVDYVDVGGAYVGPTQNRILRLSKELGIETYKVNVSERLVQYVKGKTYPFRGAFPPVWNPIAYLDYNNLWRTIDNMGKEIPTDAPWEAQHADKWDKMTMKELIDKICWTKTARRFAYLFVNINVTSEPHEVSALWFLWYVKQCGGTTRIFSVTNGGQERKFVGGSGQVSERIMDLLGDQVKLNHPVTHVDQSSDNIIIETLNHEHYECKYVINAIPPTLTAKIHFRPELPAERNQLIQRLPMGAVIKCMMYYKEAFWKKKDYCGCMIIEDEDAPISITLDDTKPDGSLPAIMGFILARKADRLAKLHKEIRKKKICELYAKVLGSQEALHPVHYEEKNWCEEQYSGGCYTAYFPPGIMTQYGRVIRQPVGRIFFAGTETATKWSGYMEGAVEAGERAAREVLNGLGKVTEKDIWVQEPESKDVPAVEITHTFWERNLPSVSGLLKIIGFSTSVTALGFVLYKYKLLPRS
Kind of test: Activity on recombinant human MAO-A, method similar to VAP-1 assay, 0.5 mM tyramine substrate. To be noted: read-out: Inhibitory Activity (IC50, nM) MAO-A. The protocol: as §1
(§2) In addition, the compounds according to the present technology were evaluated in terms of activity on a recombinant human MAO-A (monoamine oxidase-A, Sigma-Aldrich) and a recombinant human MAO-B(monoamine oxidase-B, Sigma-Aldrich) by using as substrates, 0.5 mM tyramine and 1 mM benzylamine, respectively, with a method similar to the activity evaluation method for recombinant human VAP-1. The compounds according to the present technology were also evaluated in terms of activity on a recombinant human DAO (diamine oxidase, R&D systems) by using as a substrate 1 mM putrescine with a method similar to the activity evaluation method for recombinant human VAP-1.

Test [2] addresses T3, recombinant human MAO-B (monoamine oxidase-B) (Homo sapiens, UniProt P27338).
T3 construct: purchased Sigma-Aldrich
T3 sequence (P27338 1-520): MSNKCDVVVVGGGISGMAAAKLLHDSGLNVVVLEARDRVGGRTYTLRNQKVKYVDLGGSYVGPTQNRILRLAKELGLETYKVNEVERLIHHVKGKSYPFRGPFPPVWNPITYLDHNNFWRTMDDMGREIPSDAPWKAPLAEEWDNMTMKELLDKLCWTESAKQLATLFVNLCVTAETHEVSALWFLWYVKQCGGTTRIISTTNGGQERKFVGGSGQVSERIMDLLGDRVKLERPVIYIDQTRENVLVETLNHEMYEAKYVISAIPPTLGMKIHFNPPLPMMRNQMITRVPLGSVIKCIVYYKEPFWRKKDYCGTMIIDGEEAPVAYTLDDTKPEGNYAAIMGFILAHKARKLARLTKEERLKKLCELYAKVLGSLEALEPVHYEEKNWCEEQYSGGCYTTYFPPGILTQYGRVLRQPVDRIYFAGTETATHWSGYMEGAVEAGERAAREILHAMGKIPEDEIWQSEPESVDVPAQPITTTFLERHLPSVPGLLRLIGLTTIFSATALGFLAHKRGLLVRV
Nature of the test: Activity on recombinant human MAO-B, method similar to VAP-1 assay, 1 mM benzylamine substrate. The conditions noted are these: read-out: Inhibitory Activity (IC50, nM) MAO-B. The protocol: as §1, §2

Test [3] addresses T4, recombinant human DAO (diamine oxidase) (Homo sapiens, UniProt P19801).
T4 construct: purchased R&D systems
T4 sequence (P19801 20-751): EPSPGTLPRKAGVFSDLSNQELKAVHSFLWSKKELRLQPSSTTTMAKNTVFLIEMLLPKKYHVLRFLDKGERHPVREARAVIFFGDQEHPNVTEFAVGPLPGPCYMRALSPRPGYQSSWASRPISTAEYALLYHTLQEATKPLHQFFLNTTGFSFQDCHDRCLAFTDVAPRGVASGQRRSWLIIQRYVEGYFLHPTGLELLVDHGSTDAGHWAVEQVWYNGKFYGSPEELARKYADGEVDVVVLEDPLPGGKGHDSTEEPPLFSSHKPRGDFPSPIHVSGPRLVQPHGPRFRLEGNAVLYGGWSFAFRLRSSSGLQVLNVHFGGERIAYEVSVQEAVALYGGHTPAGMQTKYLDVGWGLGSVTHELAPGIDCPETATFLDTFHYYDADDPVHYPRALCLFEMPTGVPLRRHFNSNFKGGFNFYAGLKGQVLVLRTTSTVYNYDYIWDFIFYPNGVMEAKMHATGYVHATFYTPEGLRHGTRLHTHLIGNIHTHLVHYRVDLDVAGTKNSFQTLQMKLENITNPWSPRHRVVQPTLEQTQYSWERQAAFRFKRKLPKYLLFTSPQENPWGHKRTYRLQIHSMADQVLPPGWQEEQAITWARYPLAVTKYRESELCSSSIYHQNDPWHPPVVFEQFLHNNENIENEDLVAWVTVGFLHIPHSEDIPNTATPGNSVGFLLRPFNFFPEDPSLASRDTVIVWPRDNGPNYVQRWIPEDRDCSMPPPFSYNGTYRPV
Kind of test: Activity on recombinant human DAO, method similar to VAP-1 assay, 1 mM putrescine substrate. To be noted: read-out: Inhibitory Activity (IC50, nM) DAO. The protocol:
as §1, §2

For `Cc1cc(-c2ccc3nn(C/C(=C/F)CN)c(=O)n3c2)cc2c1NC(=O)CC2` [Example 17, 6-[2-[(2E)-2-(aminomethyl)-3-fluoroprop-2-en-1-yl]-3-oxo-2,3-dihydro[1,2,4]triazolo[4,3-a]pyridin-6-yl]-8-methyl-3,4-dihydroquinolin-2(1H)-one hydrochloride], the IC50 – broadly, the midpoint of a concentration-inhibition curve – on recombinant human VAP-1 is 0.6 nM; in test [1], more than 100000 nM; in test [2], 290 nM; in test [3] it was 0.3 nM.
The corresponding values for `NC/C(=C\F)Cn1nc2ccc(-c3ccc(C(F)(F)F)nc3)cn2c1=O` [Example 9, 2-[(2E)-2-(aminomethyl)-3-fluoroprop-2-en-1-yl]-6-[6-(trifluoromethyl)pyridin-3-yl][1,2,4]triazolo[4,3-a]pyridin-3(2H)-one hydrochloride] are 12 nM, more than 100000 nM, 37 nM and 0.2 nM.
On to `NC/C(=C\F)Cn1nc2ccc(-c3ccc4c(c3)OCCO4)cn2c1=O` [Example 13, 2-[(2E)-2-(aminomethyl)-3-fluoroprop-2-en-1-yl]-6-(2,3-dihydro-1,4-benzodioxin-6-yl)[1,2,4]triazolo[4,3-a]pyridin-3(2H)-one trifluoroacetate], for which the IC50 on recombinant human VAP-1 was 4.8 nM; in test [1], more than 100000 nM; in test [2] it was 15 nM; in test [3], less than 100 nM.
The corresponding values for `NC/C(=C\F)Cn1nc2cc(-c3ccc(-c4ccon4)cc3)ccn2c1=O` [Example 25, 2-[(2E)-2-(aminomethyl)-3-fluoroprop-2-en-1-yl]-7-[4-(1,2-oxazol-3-yl)phenyl][1,2,4]triazolo[4,3-a]pyridin-3(2H)-one hydrochloride] are 0.2 nM, 18000 nM, 220 nM and 9.1 nM.
The corresponding values for `NC/C(=C\F)Cn1nc2cc(-c3ccnc4[nH]ccc34)ccn2c1=O` [Example 40, 2-[(2E)-2-(aminomethyl)-3-fluoroprop-2-en-1-yl]-7-(1H-pyrrolo[2,3-b]pyridin-4-yl)[1,2,4]triazolo[4,3-a]pyridin-3(2H)-one hydrochloride] are 0.3 nM, more than 100000 nM, 760 nM and 9.4 nM.
The corresponding values for `NC/C(=C\F)Cn1nc2ccc(-c3ccc4c(c3)OCO4)cn2c1=O` [Example 12, 2-[(2E)-2-(aminomethyl)-3-fluoroprop-2-en-1-yl]-6-(1,3-benzodioxol-5-yl)[1,2,4]triazolo[4,3-a]pyridin-3(2H)-one hydrochloride] are 3.4 nM, 14000 nM, less than 10 nM and 1.1 nM.
`NCC(Cn1nc2cc(C#Cc3ccc4c(c3)NCCO4)ccn2c1=O)=C(F)F` [Example 59, 2-[2-(aminomethyl)-3,3-difluoro-allyl]-7-[2-(3,4-dihydro-2H-1,4-benzoxazin-6-yl)ethynyl]-[1,2,4]triazolo[4,3-a]pyridin-3-one ditrifluoroacetate]: the IC50 on recombinant human VAP-1 is 1.8 nM; in test [1], more than 100000 nM; in test [2], 2700 nM; in test [3], 9000 nM.
The corresponding values for `CCn1cc(-c2ccn3c(=O)n(CC(CN)=C(F)F)nc3c2)cn1` [Example 55, 2-[2-(aminomethyl)-3,3-difluoro-allyl]-7-(1-ethylpyrazol-4-yl)-[1,2,4]triazolo[4,3-a]pyridin-3-one trifluoroacetate] are 0.4 nM, more than 100000 nM, 5100 nM and 1800 nM.
The corresponding values for `NCC(Cn1nc2cccc(Br)n2c1=O)=C(F)F` [Example 45, 2-[2-(aminomethyl)-3,3-difluoro-allyl]-5-bromo-[1,2,4]triazolo[4,3-a]pyridin-3-one trifluoroacetate] are 24 nM, more than 100000 nM, more than 100000 nM and 11000 nM.
